Data published in paper PMC10946813, “Lipophilicity Modulations by Fluorination Correlate with Membrane Partitioning” (Angewandte Chemie (International Ed. in English), 2023).
“And” between values parts separate entries of the source, which are not always exact repeats. Equal entries are not always repeated.

What was measured:
[1] = Molar membrane partition coefficient (logKp) by 19F MAS solid-state NMR in lipid vesicles; format: physicochemical; conditions: for Molar Partition Coefficient (logKP): POPC; for logKp Measured as single compound (3.30 mol%): Table 1; for logKp Measured as single compound (3.30 mol%) / logKp Measured as equimolar mixture: POPC bilayers hydrated at 20 % w/v; for increase in logKp: equimolar mixture of 9 and 10 at 3.3 mol % versus compound alone
Method: The principle of the method is explained in Figure 2 (with a detailed description of the protocol provided in Supporting Information). The method utilizes ^19F MAS NMR to quantitate the partitioning of the fluorinated compounds between the aqueous and membrane phases. […] Experimentally, it was determined that only moderate spinning speeds (10 kHz) and low power decoupling (10 kHz decoupling field) were required to obtain well resolved spectra, even at these high magnetic fields; with motional processes within the liquid crystalline lipid bilayer averaging the potentially large chemical shielding anisotropy and dipolar couplings experienced by the fluorine spins. The application of low spinning speeds and radiofrequency decoupling fields also reduces sample heating, whilst minimising the pelleting of the vesicles against the rotor wall. The absence of any discernable sidebands, resulting from incomplete averaging, simplifies the analysis, as this precludes the need to integrate the entire family of sidebands.
With knowledge of the number of water ( nW ) and lipid ( nM ) molecules, the molar partition coefficient ( KP) is readily determined.
To determine how the concentration of the compound and bilayer hydration influenced the measured logK P, a systematic study of these parameters was undertaken for compound 10 (Figure S2, Table S1). Samples were prepared where the lipids were hydrated at levels between 10 to 30 %(w/v), a range widely used to study the physical properties of lipid bilayers. […] On the basis of the reproducibility of these figures, all subsequent experiments were conducted at 20 % (w/v) hydration with a compound/lipid ratio of 0.033. In addition to providing excellent reproducibility, these concentrations afforded good signal to noise ratios with sensible spectral acquisition times. […]
(§1) to the r.f. field strength then care should be taken to ensure that the two compounds are similarly excitated. Quantitative data also requires the complete relaxation of the nuclei between scans. For the studies reported here, saturation recovery measurements were performed on each system, with spectra then acquired with a recycle delay of five times T1. It […]
(§2) shorter T1 values than that of the substrate in aqueous solution, mirroring the observation […]
(§3) In addition to more general NMR considerations, care must also be exercised to ensure that the signal intensity, particularly that of the membrane bound state, is not influenced by anisotropic interactions that may be present. Due to the molecular dynamics within the lipid bilayer, many of these interactions are already motionally averaged facilitating their removal.
(§4) The application of low-power (10 kHz) SPINAL-64 decoupling[2] is sufficient to remove the weak scalar and dipolar couplings that are present within the fluid lipid bilayer. Care was taken […]
(§5) linebroadening due to temperature dependent changes in chemical shift. Similarly, data was acquired with both 5 and 10 kHz MAS and no change in isotropic chemical shift was observed […]
(§6) However, increasing the spinning speed from 5 to 10 kHz ensured complete averaging the residual chemical shielding anisotropy and other anisotropic contrbutions to the spectra and the presence of a single isotropic resonance for each population. The absence of any discernable sidebands in spectra acquired at 10 kHz allows the accurate integration of the signal intensity without the need to integrate the entire family of sidebands which would be required for a quantitative analysis.
(§7) Care should be taken when extending this to other compounds where the anisotropy may larger, either due to a larger chemical shielding anisotropy at the fluorine site studied or the application of higher magnetic as this would complicate the signal integration.
Prior to Fourier Transform, data was processed with 1Hz exponential line broadening and zero filled with 16384 points. The resulting spectra was phased and base line corrected. All processing was performed in Matlab using matNMR[5]. […]

[2] = Octanol-water partition coefficient (logP OW), 19F NMR method with reference compound
[3] = Molar membrane partition coefficient (logKp) by 19F MAS NMR in POPC/cholesterol bilayers; format: physicochemical; conditions: for Molar Partition Coefficient (logKP): Table S3, POPC, 20% (w/v), substrate 3.3 mol%; for fall in logKP: increasing cholesterol up to 50 mol % versus pure POPC membranes
Text: A major advantage of the method presented here compared to logP determination is that it can be applied to membranes of arbitrary complexity, enabling the analysis of the influence of such properties as headgroup size/charge and chain length/saturation. […] As an example of this kind of investigation, a mixed lipid system was employed. In particular, we investigated how increasing concentrations of cholesterol, a commonly found sterol in eukaryotic cell membranes, influenced the membrane partitioning of 9 and 10 (Figure 5, Table S3). […] The fall in logK P mirrors earlier studies where a reduction in membrane partitioning for small molecules has been observed.[19] This reduction has been attributed to the […] of the acyl chain packing and their favourable interactions with the cholesterol.[20] […]
as §1, §2, §3, §4, §5, §6, §7
Prior to Fourier Transform, data was processed with 1Hz exponential line broadening and zero filled with 16384 points. The resulting spectra was phased and base line corrected. All processing was performed in Matlab using matNMR[5]. The subsequent resonances where fitted to Lorentzian peaks using custom scripts in Matlab which are available from the authors.
1.4 Calculation of the molar membrane partition coefficients
In the slow exchange limit the molar partition coefficient can then be calculated as:
K = n",$/n$ = C",$/’(’)*.n% = I",$ . n%
Where C",+ and C",$ are the concentrations of the substrate in the membrane and aqueous phases respectively and n", n$ and n% are the number of substrate, lipid and water molecules respectively. The ratio C",$/’(’)*/C",%/’(’)* can be determined directly from the ratio of the integrals from the signals arising from the lipidic and aqueous phases (See Figure 2, main paper), whilst the ratio of n%/n$ represents the ratio of water to lipid molecules in the membrane, the degree of hydration.
2 Influence of exchange between the membrane and aqueous phase on 19F MAS-NMR Lineshape (Figure S1)
The influence of chemical exchange is well characterised in the liquid state, however […]

[4] = Table S2, one 19F resonance evaluated
[5] = Table S2, glycosides, first listed 19F resonance
[6] = Table S2, glycosides, second listed 19F resonance
[7] = individual experiment (octanol/water), one of triplicate
[8] = octanol/water, Average logP, triplicate
[9] = octanol/water, Error (mean logP with standard deviation), triplicate, three decimals

Compound: OCC(F)CC(F)(F)CO (stereo not drawn) [compound 14]
- Molar Partition Coefficient (logKP) [1, 4]: 2.01 ± 0.01

Compound: OCC(F)(F)CC(F)(F)CO [compound 13]
- logKp Measured as single compound (3.30 mol%) [1]: 2.40±0.07
- Molar Partition Coefficient (logKP) [1, 4]: 2.40 ± 0.07
- logKp Measured as equimolar mixture ([1]; mixture 10+13, 3.30 mol% each): 2.50±0.10

Compound: OC[C@H](F)C[C@@H](F)CO (single isomer, unassigned) [ent-15]
- Molar Partition Coefficient (logKP) [1, 4]: 1.82 ± 0.06

Compound: CO[C@@H]1O[C@H](CF)[C@H](F)[C@H](O)[C@H]1O [compound 8, methyl 4,6-dideoxy-4,6-difluoro-β-D-galactopyranoside]
- Molar Partition Coefficient (logKP) [1, 5]: 1.69 ± 0.00
- Molar Partition Coefficient (logKP) [1, 6]: 1.64 ± 0.06
- logP [2, 7]: -1.257 and -1.242 and -1.253
- logP [2, 8]: -1.25
- logP [2, 9]: -1.25

Compound: OCCCC(F)(F)CO [compound 9]
- logKp Measured as single compound (3.30 mol%) [1]: 2.01±0.02
- Molar Partition Coefficient (logKP) [1, 4]: 2.01 ± 0.02
- Molar Partition Coefficient (logKP) ([1]; Table S3, membrane cholesterol 0 mol %, 20% (w/v), substrate 3.3 mol%): 2.01 ± 0.02
- increase in logKp [1]: 0.2 units
- logKp Measured as equimolar mixture ([1]; mixture 9+10, 1.65 mol% each): 1.99±0.09
- logKp Measured as equimolar mixture ([1]; mixture 9+10, 3.30 mol% each): 2.18±0.07
- Molar Partition Coefficient (logKP) ([3]; membrane cholesterol 25 mol %): 1.87 ± 0.03
- Molar Partition Coefficient (logKP) ([3]; membrane cholesterol 50 mol %): 1.77 ± 0.02
- fall in logKP [3]: 0.24

Compound: OC[C@@H](F)C[C@@H](F)CO [compound 16]
- Molar Partition Coefficient (logKP) [1, 4]: 1.71 ± 0.10

Compound: OCC1(F)CC1 [compound 3]
- Molar Partition Coefficient (logKP) [1, 4]: 2.08 ± 0.01

Compound: CO[C@H]1O[C@H](CF)[C@H](F)[C@H](O)[C@H]1O [compound 7, methyl 4,6-dideoxy-4,6-difluoro-α-D-galactopyranoside]
- Molar Partition Coefficient (logKP) [1, 5]: 1.80 ± 0.05
- Molar Partition Coefficient (logKP) [1, 6]: 1.87 ± 0.14
- logP [2, 7]: -0.905 and -0.898
- logP [2, 8]: -0.9
- logP [2, 9]: -0.902

Compound: OCCC(F)CCO [compound 11]
- Molar Partition Coefficient (logKP) [1, 4]: 1.68 ± 0.08

Compound: OC[C@H]1C[C@@H]1F [compound 2]
- Molar Partition Coefficient (logKP) [1, 4]: 2.17 ± 0.05

Compound: OCCC(F)(F)CCO [compound 10]
- logKp Measured as single compound (3.30 mol%) [1]: 1.83±0.04 and 1.83±0.11
- logKP ([1]; Table S1, hydration 10 % w/v, substrate/lipid 0.010 mole/mole): 1.73
- logKP ([1]; Table S1, hydration 10 % w/v, substrate/lipid 0.033 mole/mole): 1.91
- logKP ([1]; Table S1, hydration 10 % w/v, substrate/lipid 0.100 mole/mole): 1.81
- logKP ([1]; Table S1, hydration 20 % w/v, substrate/lipid 0.010 mole/mole): 1.97
- logKP ([1]; Table S1, hydration 20 % w/v, substrate/lipid 0.033 mole/mole, mean value (n=3)): 1.83
- logKP ([1]; Table S1, hydration 20 % w/v, substrate/lipid 0.100 mole/mole): 1.95
- logKP ([1]; Table S1, hydration 30 % w/v, substrate/lipid 0.010 mole/mole): 1.81
- logKP ([1]; Table S1, hydration 30 % w/v, substrate/lipid 0.033 mole/mole): 1.69
- logKP ([1]; Table S1, hydration 30 % w/v, substrate/lipid 0.100 mole/mole): 1.85
- logKP, Mean ([1]; Table S1, mean over all hydrations (10-30 % w/v) and substrate/lipid ratios (0.010-0.100)): 1.85
- Molar Partition Coefficient (logKP) [1, 4]: 1.83 ± 0.04
- mean logKP ([1]; compound concentration 1 to 10 mol % (with respect to total lipid), mean across all levels of hydration): 1.85±0.02
- increase in logKp [1]: 0.2 units
- mean logKP ([1]; lipids hydrated at 10 to 30 %(w/v), mean across the range of compound concentrations studied): 1.85±0.06
- logKp Measured as equimolar mixture ([1]; mixture 9+10, 1.65 mol% each): 1.84±0.01
- logKp Measured as equimolar mixture ([1]; mixture 9+10, 3.30 mol% each): 2.01±0.04
- logKp Measured as equimolar mixture ([1]; mixture 10+13, 3.30 mol% each): 1.88±0.11
- Kp at 0.01 mole/mole substrate/lipid ([1]; multilamellar POPC vesicles, Table S1, hydration 10 % w/v, substrate/lipid 0.010 mole/mole): 53.4
- Kp at 0.033 mole/mole substrate/lipid ([1]; multilamellar POPC vesicles, Table S1, hydration 10 % w/v, substrate/lipid 0.033 mole/mole): 81.8
- Kp at 0.1 mole/mole substrate/lipid ([1]; multilamellar POPC vesicles, Table S1, hydration 10 % w/v, substrate/lipid 0.100 mole/mole): 64.5
- Kp at 0.01 mole/mole substrate/lipid ([1]; multilamellar POPC vesicles, Table S1, hydration 20 % w/v, substrate/lipid 0.010 mole/mole): 93.9
- Kp at 0.033 mole/mole substrate/lipid ([1]; multilamellar POPC vesicles, Table S1, hydration 20 % w/v, substrate/lipid 0.033 mole/mole): 67.6
- Kp at 0.1 mole/mole substrate/lipid ([1]; multilamellar POPC vesicles, Table S1, hydration 20 % w/v, substrate/lipid 0.100 mole/mole): 89.4
- Kp at 0.01 mole/mole substrate/lipid ([1]; multilamellar POPC vesicles, Table S1, hydration 30 % w/v, substrate/lipid 0.010 mole/mole): 65.3
- Kp at 0.033 mole/mole substrate/lipid ([1]; multilamellar POPC vesicles, Table S1, hydration 30 % w/v, substrate/lipid 0.033 mole/mole): 49.2
- Kp at 0.1 mole/mole substrate/lipid ([1]; multilamellar POPC vesicles, Table S1, hydration 30 % w/v, substrate/lipid 0.100 mole/mole): 70.7
- Kp ([1]; multilamellar POPC vesicles, Table S1, mean over all hydrations (10-30 % w/v) and substrate/lipid ratios (0.010-0.100)): 71.6
- Molar Partition Coefficient (logKP) ([3]; membrane cholesterol 25 mol %): 1.74 ± 0.02
- Molar Partition Coefficient (logKP) ([3]; membrane cholesterol 50 mol %): 1.68 ± 0.05
- fall in logKP [3]: 0.17

Compound: OC[C@@H]1C[C@@H]1F [compound 4]
- Molar Partition Coefficient (logKP) [1, 4]: 2.02 ± 0.04

Compound: CO[C@H]1O[C@H](CF)[C@@H](F)[C@H](O)[C@H]1O [compound 5]
- Molar Partition Coefficient (logKP) [1, 5]: 1.98 ± 0.02
- Molar Partition Coefficient (logKP) [1, 6]: 1.98 ± 0.03
- logP [2, 7]: -0.698 and -0.708 and -0.717
- logP [2, 8]: -0.71
- logP [2, 9]: -0.707

Compound: OC[C@@H](F)C[C@H](F)CO [compound 15]
- Molar Partition Coefficient (logKP) [1, 4]: 1.85 ± 0.10

Compound: OCC1CC1(F)F (stereo not drawn) [compound 1]
- Molar Partition Coefficient (logKP) [1, 4]: 2.54 ± 0.08

Compound: CO[C@@H]1O[C@H](CF)[C@@H](F)[C@H](O)[C@H]1O [compound 6]
- Molar Partition Coefficient (logKP) [1, 5]: 1.93 ± 0.16
- Molar Partition Coefficient (logKP) [1, 6]: 1.95 ± 0.15
- logP [2, 7]: -1.036 and -1.054 and -1.053
- logP [2, 8]: -1.05
- logP [2, 9]: -1.05
